Measurements taken from patent US9428536B2, “Immunostimulatory G, U-containing oligoribonucleotides” (Zoetis Belgium SA, priority 2002, dated 2016).
Oligonucleotides are written 5' to 3', each unit as a sugar letter and its base; * is a phosphorothioate linkage, no mark a phosphodiester; rarer units and linkages stand in square brackets, end groups in braces. Plain capitals give the bases only. d = 2'-deoxy (DNA); r = 2'-OH (RNA)

Tests used:
Type in all cases: cell-based
[1] = system: human PBMC; assay: Human PBMC IFN-α secretion, ELISA
Method: (§1) In order to investigate the possibility of using cholesteryl ester-modified RNA oligomer in place of RNA oligomer plus cationic lipid, RNA oligomer GUGUGUGU was prepared with (R 1058) and without (R 1006) a 3′ cholesteryl ester modification. These two RNA oligomers with and without DOTAP, were added over a range of concentrations to overnight cultures of human PBMC. Culture supernatants were harvested, and human TNF-α, IL-12 p40, and IFN-α were measured by ELISA using matched antibody pairs from BD-Pharmingen according to the manufacturer's protocol.
(§2) RNA oligomers GUGUGUGU, GUGUGUG, GUGUGU, GUGUG, GUGU, GUG, and GU, with and without DOTAP, were added over a range of concentrations to overnight cultures of human PBMC. Culture supernatants were harvested, and human TNF-α, IL-12 p40, and IFN-α were measured by ELISA using matched antibody pairs from BD-Pharmingen according to the manufacturer's protocol.
as §2, with “oligomers,” for “oligomers GUGUGUGU, GUGUGUG, GUGUGU, GUGUG, GUGU, GUG, and GU,”
In like manner, an all-phosphodiester 40-mer capable of forming a stem-loop structure and having a base sequence as provided by 5′-[…]-3′ (R 1041; SEQ ID NO:10) was synthesized and tested in overnight culture with human PBMC.

[2] = system: human PBMC; assay: Human PBMC TNF-α secretion, ELISA; settings: for TNF response of human PBMC: FIG. 15, 30 μM; for TNF-α response of human PBMC (in words): Example 1, FIG. 2, RNA 50 μg/ml; for TNF-α response of human PBMC (in words) / dose-response of TNF-α secretion: 16 hours; for dose-response of TNF-α secretion: Example 2, 10, 3 or 1 μg RNA with 10 μg DOTAP per 200 μl well
Method: (§3) Human peripheral blood mononuclear cells (PBMCs) were isolated from healthy donors, plated at 3×10^5 cells/well, stimulated in vitro with various test and control immunostimulatory agents for 16 hours, and then analyzed by enzyme-linked immunosorbent assay (ELISA) using matched antibody pairs from BD-Pharmingen for secreted cytokines IL-12 p40 and TNF-α, performed according to the manufacturer's protocol. Also included were certain negative controls, including medium alone and DOTAP (10 μg/200 μl culture well; “Liposomes”) alone. The control immunostimulatory agents included the imidazoquinolone R-848 (2 μg/ml), lipopolysaccharide (LPS; 1 μg/ml), Pam3Cys (5 μg/ml), poly IC (50 μg/ml), and CpG DNA (50 μg/ml). These are reported ligands for TLR7, TLR4, TLR2, TLR3, and TLR9, respectively. Test immunostimulatory agents included the following RNA molecules, each at 50 μg/ml, with and without DOTAP (10 μg total “with Liposomes” and “without Liposomes”, respectively): GUGUUUAC alone; GUAGGCAC alone; GUGUUUAC in combination with GUAGGCAC; GUAGGA; GAAGGCAC; CUAGGCAC; CUCGGCAC; and CCCCCCCC. These RNA oligonucleotides each contained a phosphorothioate linkage between the penultimate and 3′ terminal nucleoside.
(§4) The experiments described in the preceding example were repeated with varied concentrations of RNA oligonucleotides in order to assess the dose-response behavior of human PBMCs to G,U-containing RNA oligonucleotides of the invention. A total of 10, 3 or 1 μg RNA was added to 10 μg DOTAP and then added to the 200 μl culture wells. After 16 hours IL-12 p40 and TNF-α ELISAs were performed as described in Example 1.
as §1, §2
as §2, with “oligomers,” for “oligomers GUGUGUGU, GUGUGUG, GUGUGU, GUGUG, GUGU, GUG, and GU,”
Human PBMC were cultured overnight in the presence of added DNA:RNA conjugate, with and without DOTAP. Culture supernatants were harvested and human TNF-α, IL-6, IL-12 p40, IP-10, and IFN-α were measured by ELISA using matched antibody pairs from BD-Pharmingen according to the manufacturer's protocol.
Human PBMC were cultured overnight in the presence of various concentrations (1, 3, and 10 μg/ml) of tRNA obtained from wheat germ, bovine, yeast, and E. coli sources, added to the culture medium with and without DOTAP. Culture supernatants were harvested and human TNF-α and IL-12 p40 were measured by ELISA using matched antibody pairs from BD-Pharmingen according to the manufacturer's protocol. […] In addition, E. coli tRNA at 3 and 10 μg/ml induced minor amounts of both cytokines even without DOTAP. […]
FIG. 10 depicts the responsiveness of human PBMC to stringent response factor (SRF). SRF is produced by rapidly growing bacteria (in this case Listeria monocytogenes) in rich media until their late log phase. The bacteria were pelleted and resuspended in an equal volume of PBS for 24 h. The mixture is centrifuged to remove the bacteria. […]

[3] = system: human PBMC; assay: Human PBMC IL-12 p40 secretion, ELISA; settings: for IL-12 p40 response of human PBMC (in words): Example 1, FIG. 1, RNA 50 μg/ml with and without DOTAP, R-848 2 μg/ml, LPS 1 μg/ml, Pam3Cys 5 μg/ml, poly IC 50 μg/ml; for IL-12 p40 response of human PBMC (in words) / dose-response of IL-12 p40 secretion: 16 hours; for dose-response of IL-12 p40 secretion: Example 2, FIG. 3, 10, 3 or 1 μg RNA with 10 μg DOTAP per 200 μl well; for EC50 / IL-12 p40 max: Table 2, oligomer length, human PBMC overnight, including DOTAP
Method: as §3
as §4, with “1. […]” for “1.”
as §2, with “protocol. […]” for “protocol.”

[4] = Table 1, human PBMC overnight culture, with DOTAP
[5] = Table 1, human PBMC overnight culture, with DOTAP, read-out: IFN-α + DOTAP EC50
[6] = Table 2, oligomer length, human PBMC overnight, including DOTAP
[7] = Table 2, oligomer length, human PBMC overnight, including DOTAP, read-out: IFN-α EC50
[8] = Table 3, internucleoside linkages, human PBMC overnight, including DOTAP
[9] = Table 3, internucleoside linkages, human PBMC overnight, including DOTAP, read-out: IFN-α EC50
[10] = Table 1, human PBMC overnight culture, with DOTAP, read-out: TNF-α + DOTAP EC50
[11] = Table 1, human PBMC overnight culture, without DOTAP
[12] = Table 1, human PBMC overnight culture, without DOTAP, read-out: TNF-α − DOTAP EC50
[13] = Table 2, oligomer length, human PBMC overnight, including DOTAP, read-out: TNF-α EC50
[14] = Table 3, internucleoside linkages, human PBMC overnight, including DOTAP, read-out: TNF-α EC50

5′-CACACACUGCUUAAGCGCUUGCCUGCUUAAGUAGUGUGUG-3′ (RNA, phosphodiester; forms stem-loop structure) [R 1041, all-phosphodiester 40-mer capable of forming a stem-loop structure]
IFN-α induction maximum ([1]; overnight culture with human PBMC): 5000 pg/mL
EC50 ([1]; overnight culture with human PBMC, read-out: IFN-α induction EC50): < 0.1 µM

5′-GUUGUGGUUGUGGUUGUG-3′ (chemistry not given here) [SEQ ID NO:1, G,U-rich RNA oligonucleotide]
TNF response of human PBMC [2]: responsive

CCCCCCCC
IL-12 p40 response of human PBMC (in words) [3]: did not secrete significant amounts
dose-response of IL-12 p40 secretion [3]: appeared not to secrete
TNF-α response of human PBMC (in words) [2]: did not secrete significant amounts
dose-response of TNF-α secretion [2]: did not appear to secrete significant amounts

CUAGGCAC
dose-response of IL-12 p40 secretion [3]: increasing amounts
dose-response of TNF-α secretion [2]: increasing amounts

CUCGGCAC
dose-response of IL-12 p40 secretion [3]: increasing amounts
dose-response of TNF-α secretion [2]: increasing amounts

G*U*G*U*G*U*G*U [R 1006]
EC50 [3]: 1.6 µM
IL-12 p40 max [3]: 7000 pg/mL
IFN-α + DOTAP max [1, 4]: 5000 pg/mL
EC50 [1, 5]: 4.5 µM
IFN-α max [1, 6]: 5000 pg/mL
EC50 [1, 7]: 4.5 µM
IFN-α max [1, 8]: 5000 pg/mL
EC50 [1, 9]: 4.5 µM
TNF-α + DOTAP max [2, 4]: 40000 pg/mL
EC50 [2, 10]: 2.8 µM
TNF-α − DOTAP max [2, 11]: 2200 pg/mL
EC50 [2, 12]: 7.8 µM
TNF-α max [2, 6]: 40000 pg/mL
EC50 [2, 13]: 2.8 µM
TNF-α max [2, 8]: 40000 pg/mL
EC50 [2, 14]: 2.8 µM

G*U*G*U*G*U*G*U_dG_dG*dG*dG*dG*dG (rG*rU*rG*rU*rG*rU*rG*rUdGdG*dG*dG*dG*dG) [R 1060]
TNF-α max ([2]; Table 4, DNA:RNA conjugates, human PBMC overnight, including DOTAP): 20000 pg/mL
EC50 ([2]; Table 4, DNA:RNA conjugates, human PBMC overnight, including DOTAP, read-out: TNF-α EC50): 4.9 µM

G*U_G*U*G*U*G*U [R 1054]
IFN-α max [1, 8]: 3700 pg/mL
EC50 [1, 9]: 6.7 µM
TNF-α max [2, 8]: 40000 pg/mL
EC50 [2, 14]: 5.6 µM

G*U_G*U_G*U*G*U [R 1055]
TNF-α max [2, 8]: 20000 pg/mL
EC50 [2, 14]: > 20 µM

G*U_G*U_G*U_G*U [R 1056]
TNF-α max [2, 8]: 12000 pg/mL
EC50 [2, 14]: > 20 µM

GAAGGCAC
IL-12 p40 response of human PBMC (in words) [3]: did not secrete significant amounts
dose-response of IL-12 p40 secretion [3]: appeared not to secrete
TNF-α response of human PBMC (in words) [2]: did not secrete significant amounts
dose-response of TNF-α secretion [2]: did not appear to secrete significant amounts

GUAGGA
IL-12 p40 response of human PBMC (in words) [3]: little, if any immunostimulatory effect
TNF-α response of human PBMC (in words) [2]: did not secrete significant amounts

GUAGGCAC
dose-response of IL-12 p40 secretion [3]: increasing amounts
dose-response of TNF-α secretion [2]: increasing amounts

GUG [R 1052]
EC50 [3]: > 20 µM
IL-12 p40 max [3]: 6000 pg/mL
IFN-α max [1, 6]: 800 pg/mL
EC50 [1, 7]: 5.5 µM

GUGU [R 1051]
EC50 [3]: > 20 µM
IL-12 p40 max [3]: 14000 pg/mL

GUGUG [R 1050]
EC50 [3]: 3.9 µM
IL-12 p40 max [3]: 14000 pg/mL
IFN-α max [1, 6]: 400 pg/mL
EC50 [1, 7]: 6.9 µM
TNF-α max [2, 6]: 40000 pg/mL
EC50 [2, 13]: 7.6 µM

GUGUGU [R 1049]
EC50 [3]: 2.1 µM
IL-12 p40 max [3]: 8000 pg/mL
IFN-α max [1, 6]: 3400 pg/mL
EC50 [1, 7]: 4.8 µM
TNF-α max [2, 6]: 30000 pg/mL
EC50 [2, 13]: 6.7 µM

GUGUGUG [R 1048]
EC50 [3]: 2.6 µM
IL-12 p40 max [3]: 10000 pg/mL
IFN-α max [1, 6]: 2700 pg/mL
EC50 [1, 7]: 4.6 µM
TNF-α max [2, 6]: 30000 pg/mL
EC50 [2, 13]: 2.2 µM

GUGUGUGU [R 1058]
IFN-α + DOTAP max [1, 4]: 3800 pg/mL
EC50 [1, 5]: 0.5 µM
IFN-α − DOTAP max [1, 11]: 1500 pg/mL
EC50 ([1]; Table 1, human PBMC overnight culture, without DOTAP, read-out: IFN-α − DOTAP EC50): 0.5 µM
TNF-α + DOTAP max [2, 4]: 75000 pg/mL
EC50 [2, 10]: 0.2 µM
TNF-α − DOTAP max [2, 11]: 3000 pg/mL
EC50 [2, 12]: 1 µM
potency compared with R 1006 (cytokine induction in human PBMC) ([2]; both with and without DOTAP): more potent

GUGUUUAC
dose-response of IL-12 p40 secretion [3]: increasing amounts
dose-response of TNF-α secretion [2]: increasing amounts

G_U_G_U_G_U_G_U [R 1057]
IFN-α max [1, 8]: 6000 pg/mL
EC50 [1, 9]: 0.1 µM

SEQ ID NO:19: G,U-rich DNA oligonucleotide counterpart of SEQ ID NO:1 (GUUGUGGUUGUGGUUGUG; DNA oligonucleotide, linkage chemistry not given here, further chemistry not given here) [reference compound]
TNF response of human PBMC [2]: not
